Tests used:
dopamine transporter = molecular target: T1, dopamine transporter (Rattus norvegicus, UniProt P23977); assay: Radioreceptor binding assay, dopamine transporter ([3H]GBR-12935), rat brain corpus striatum membranes; conditions: for Ki: [3H]GBR-12935 0.4 nM, 45 min at 4° C., Tris buffer pH 7.4, rat corpus striatum, ±SEM, read-out: Dopamine Transporter (DAT) (Ki); for DAT/5-HTT Selectivity: ratio of Ki for the dopamine transporter to the Ki for the serotonin transporter
T1 construct: crude membrane fraction of homogenates of rat brain corpus striatum (for the dopamine transporter); from tissue; host or cells: rat brain corpus striatum, crude membrane fraction
T1 sequence (P23977 whole entry): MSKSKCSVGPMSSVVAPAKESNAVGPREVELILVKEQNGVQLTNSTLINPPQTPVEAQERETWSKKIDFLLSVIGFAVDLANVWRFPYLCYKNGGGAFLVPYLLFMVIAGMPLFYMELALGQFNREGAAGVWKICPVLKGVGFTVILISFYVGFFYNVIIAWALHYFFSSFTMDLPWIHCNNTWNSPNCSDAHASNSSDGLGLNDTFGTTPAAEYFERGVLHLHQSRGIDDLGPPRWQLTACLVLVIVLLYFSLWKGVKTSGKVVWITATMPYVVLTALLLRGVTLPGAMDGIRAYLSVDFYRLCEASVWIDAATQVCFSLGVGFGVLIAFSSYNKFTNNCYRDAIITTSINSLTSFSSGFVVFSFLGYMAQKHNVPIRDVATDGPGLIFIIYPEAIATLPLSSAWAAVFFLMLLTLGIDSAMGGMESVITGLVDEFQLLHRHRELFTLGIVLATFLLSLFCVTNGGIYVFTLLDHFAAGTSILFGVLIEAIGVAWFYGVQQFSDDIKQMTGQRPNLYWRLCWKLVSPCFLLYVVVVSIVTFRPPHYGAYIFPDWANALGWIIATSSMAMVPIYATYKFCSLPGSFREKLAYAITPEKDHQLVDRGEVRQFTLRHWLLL

serotonin transporter = molecular target: T2, serotonin transporter (Rattus norvegicus, UniProt P31652); assay: Radioreceptor binding assay, serotonin transporter ([3H]paroxetine), rat frontoparietal cerebral cortex membranes; conditions: [3H]paroxetine 0.2 nM, 60 min at 20° C., Tris buffer pH 7.4, rat frontoparietal cortex; ±SEM; read-out: Serotonin Transporter (5-HTT) (Ki)
T2 construct: rat brain corpus striatum (for the dopamine transporter) or frontoparietal cerebral cortex (for the serotonin and norepinephrine transporters); from tissue; host or cells: rat frontoparietal cerebral cortex, crude membrane fraction
T2 sequence (P31652 whole entry): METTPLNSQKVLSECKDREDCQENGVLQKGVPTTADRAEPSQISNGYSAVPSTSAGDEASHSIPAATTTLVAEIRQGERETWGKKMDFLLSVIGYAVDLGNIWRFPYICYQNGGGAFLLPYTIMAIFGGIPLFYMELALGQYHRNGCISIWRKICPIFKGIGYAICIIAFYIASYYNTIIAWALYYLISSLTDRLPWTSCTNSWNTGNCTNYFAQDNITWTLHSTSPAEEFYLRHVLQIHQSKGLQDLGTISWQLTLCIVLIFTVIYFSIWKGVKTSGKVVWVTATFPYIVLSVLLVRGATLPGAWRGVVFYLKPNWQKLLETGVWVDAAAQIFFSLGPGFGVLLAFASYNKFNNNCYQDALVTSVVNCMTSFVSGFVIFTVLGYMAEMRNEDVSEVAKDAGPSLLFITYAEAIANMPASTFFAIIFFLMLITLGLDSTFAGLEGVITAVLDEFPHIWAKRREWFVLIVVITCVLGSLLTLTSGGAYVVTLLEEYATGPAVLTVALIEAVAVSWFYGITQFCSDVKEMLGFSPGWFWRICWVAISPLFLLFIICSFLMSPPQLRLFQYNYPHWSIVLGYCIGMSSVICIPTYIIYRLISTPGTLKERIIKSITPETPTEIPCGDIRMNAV

Row | Substance | Ki (dopamine transporter) [nM] | DAT/5-HTT Selectivity (dopamine transporter) | Ki (serotonin transporter) [nM]
1 | N-(tricarbonylrheniumcyclopentadienylbutan-1-one-4-yl)-2β-carbomethoxy-3β-(4-chlorophenyl)nortropane [RBI-235] | 1.29 ± 0.1 | 3.49 | 0.37 ± 0.04
2 | N-(tricarbonylrheniumcyclopentadienylcarboxypropyl)-2β-carbomethoxy-3β-(4-chlorophenyl)nortropane [RBI-232] | 2.66 ± 0.33 | 4.75 | 0.56 ± 0.08
3 | N-(tricarbonylmanganesecyclopentadienylbutan-1-one-4-yl)-2β-carbomethoxy-3β-(4-chlorophenyl)nortropane [RBI-233] | 1.67 ± 0.39 | 2 | 0.84 ± 0.06
4 | 3β-(4-Chlorophenyl)-2β-tricarbonylrheniumcyclopentadienylcarboxymethyl)tropane [RBI-219] | 4.41 ± 0.76 | 0.37 | 11.9 ± 1.7
5 | 3β-(4-iodophenyl)-2β-(tricarbonylrheniumcyclopentadienylcarboxymethyl)tropane [RBI-211] | 7.22 ± 1.06 | 0.21 | 34.6 ± 3.4
